# From patent US20220008402A1, “INCREASED E-CADHERIN EXPRESSION OR ACTIVITY FOR THE TREATMENT OF INFLAMMATORY DISEASES” (The Cleveland Clinic Foundation, priority 2020, published 2022)
# Legend:
# Assay type in all cases: cell-based, human
# [1] = system: T84 cell monolayers; assay: Wound healing assay; conditions: 10 μM pretreatment 24 h, migration 24-48 hours
# Experimental: FIG. 8: E-cadherin-enhancing drug promote collective migration of intestinal epithelial cells. Confluent T84 cell monolayers were pretreated with either vehicle, ECU (10 μM) or ML327 (10 μM) for 24 hours. Afterwards, cell monolayers were wounded and allowed to migrate into wound area in the presence of the drugs. Cell monolayers were photographed and wound closure was calculated at the indicated times. Data is presented as mean ±SE (n=3); **P<0.05, ***P<0.01.
# Confluent epithelial cell monolayers were mechanically wounded by making a thin scratch wound with a 200 μl pipette tip. The bottom of the well was marked to define the position of the wound and the monolayers were supplied with fresh cell culture medium. The images of a cell-free area at the marked region were acquired at the indicated times after wounding using an inverted bright field microscope equipped with a camera. The percentage of wound closure was calculated using an Image J software (NIH, Bethesda, Md.).
# Finally, the effects of E-cadherin-enhancing drugs on epithelial restitution (wound healing) were examined. This is an important question given the fact that epithelial wounds are frequently formed in inflamed intestinal mucosa of IBD patients and wound healing is necessary to restore the integrity of the gut barrier and to achieve remission of chronic inflammatory diseases. […]
# [2] = system: T84 cell monolayers; assay: Immunoblotting of signaling molecules after multiple wounding; conditions: 10 μM pretreatment 24 h; lysates 12 and 24 h post-wounding
# Experimental: Confluent T84 cell monolayers were pretreated with either vehicle, ECU (10 μM), or ML327 (10 μM), for 24 h, and were subjected to multiple wounding. Total cell lysates were collected at 12 and 24 h post-wounding, and the expression of different signaling molecules was determined by immunoblotting. Representative immunoblots (A) and densitometric quantification of protein band intensities from three independent experiments (B) are shown. Data are presented as a mean ±SE (n=3); *p<0.05; **p<0.01.
# To prepare total cell lysates, epithelial cell monolayers were scraped and homogenized using a Dounce homogenizer in RIPA buffer (20 mM Tris, 50 mM NaCl, 2 mM EDTA, 2 mM EGTA, 1% sodium deoxycholate, 1% Triton X-100 (TX-100), and 0.1% SDS, pH 7.4) containing protease inhibitor cocktail and phosphatase inhibitor cocktails 2 and 3 (Sigma-Aldrich). The obtained total cell lysates were cleared by centrifugation (20 min at 14,000×g), diluted with 2×SDS sample loading buffer and boiled. SDS-polyacrylamide gel electrophoresis was conducted using a standard protocol with equal amounts of total protein (10 or 20 μg) loaded per each lane. The separated proteins were transferred to nitrocellulose membranes and the membranes were blocked with 5% non-fat milk. […]
# [3] = system: SK-0015 cell monolayers; assay: Epithelial barrier permeability in vitro (TEER, FITC-dextran flux), steady state; conditions: 10 μM
# Experimental: (§1) FIG. 1: E-cadherin-enhancing drugs decrease ionic permeability of model colonic epithelial cell monolayers. Confluent T84 (A), HT-29cF8 (B) and SK-0015 (C) cell monolayers were treated for indicated times with either vehicle, E-cadherin upregulator (ECU, 10 μM), or ML327 (10 μM). Transepithelial electrical resistance (TEER) of the cell monolayers was measured before and during the drug treatment. Data is presented as mean ±SE (n=3); *P<0.05.
# (§2) FIG. 2: E-cadherin-enhancing drugs decrease colonic epithelial permeability to large molecules. Confluent T84 (A), HT-29cF8 (B) and SK-C015 (C) cell monolayers were treated with either vehicle, ECU, or ML327, as described in the FIG. 1 legend. Trans-monolayer flux of FITC-dextran was determined at the end of the drug treatment. Data is presented as mean ±SE (n=3); **P<0.05 ***P<0.01.
# (§3) Transepithelial electrical resistance (TEER) of cultured T84, HT-29 and SK-C015 intestinal epithelial cell monolayers was measured using an EVOMX voltohmmeter (World Precision Instruments, Sarasota, Fla.). Cells were plated on collagen-coated transwell filters (pore size 3 μm, Thermo-Fisher). The resistance of cell-free collagen-coated filters was subtracted from each experimental point. An in vitro dextran flux assay was performed by a following commonly-used protocol. Intestinal epithelial cell monolayers growing on transwell filters were apically exposed to 1 mg/ml of FITC-labeled dextran (4,000 Da) in HEPES-buffered Hanks balanced salt solution (HBSS). After 120 min of incubation, HBSS samples were collected from the lower chamber, and FITC fluorescence intensity was measured using a Victor^3 V plate reader (Perkin Elmer, Waltham, Mass.) with excitation and emission wavelengths 485 and 544 nm, respectively. After subtracting the fluorescence of dextran-free HBSS the amount of FITC dextran translocated across the epithelial cell monolayer was calculated based on a calibration curve using Prism 5 software (GraphPad, La Jolla, Calif.).
# (§4) One set of experiments examined the effects of E-cadherin upregulator (ECU) and ML327 on the barrier properties of normal model intestinal epithelial cell monolayers. Three different human colonic epithelial cell lines, namely, T84, SK-0015 and HT-29 cF8 cells, were used. Cells were plated on collagen-coated transwell filters and allowed to reach confluency and differentiate for 5-7 days after plating. Thereafter, cell monolayers were exposed to either ECU (10 μM), ML327 (10 μM) or vehicle (DMSO). Transepithelial electrical resistance (TEER) was measured before and at different times after addition of E-cadherin-enhancing drugs. A transepithelial flux of FITC-dextran was examined at the end of the drug exposure to evaluate epithelial permeability to large uncharged molecules.
# [4] = system: HT-29 cF8 cell monolayers; assay: as above; conditions: 10 μM
# Experimental: as §1, §2, §3, §4
# [5] = system: T84 cell monolayers; assay: as above; conditions: 10 μM
# Experimental: as §1, §2, §3, §4
# [6] = at the end of the drug exposure
# [7] = rapid (within 24 h) and sustained (up to 96 h), vs vehicle (DMSO)
smiles,measurement,setting,value
O=C(NCCCCc1ccncc1)c1cc(-c2ccco2)on1 [ECU],Cell migration during wound healing (wound closure),[1],significantly increased migration
same,Expression of signaling molecules (pro-migratory signaling),[2],activation of pro-migratory signaling events
same,Transepithelial flux of FITC-dextran,[3]; [6],significantly inhibited FITC-dextran flux
same,Transepithelial electrical resistance (TEER),[3]; [7],increase in TEER
same,Transepithelial flux of FITC-dextran,[4]; [6],significantly inhibited FITC-dextran flux
same,Transepithelial electrical resistance (TEER),"[4]; up to 96 h, vs vehicle (DMSO)",increase in TEER
same,Transepithelial flux of FITC-dextran,"[5]; at the end of the drug exposure, T84",significantly inhibited FITC-dextran flux
same,Transepithelial electrical resistance (TEER),[5]; [7],increase in TEER
